The values that follow come from patent publication US20240368173A1, “TRICYCLIC GPR65 MODULATORS” (PATHIOS THERAPEUTICS LIMITED, priority 2021, published 2024).

A word on the pIC50: it is −log10 of the IC50, conventionally taken in molar units.

For this assay, the target named is human recombinant GPR65 (Homo sapiens, UniProt Q8IYL9). The assay can be described thus: Human GPR65 cAMP HTRF antagonist assay. Type of assay: cell-based. A digest of the protocol:
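Antagonism measured as suppression of the cAMP rise when pH is dropped to 7.2 (control wells pH 7.9) in 1321N1 cells stably carrying human GPR65. Cells in KRH with 1 mM IBMX and 200 μM EDTA saw compound 30 min, then acid stimulation 30 min; HTRF cAMP detection, normalised, 4-parameter logistic IC50.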
(TR-FRET usually uses a lanthanide donor and a delayed reading to cut background.)

Where [1] appears, read: 1321N1-hrGPR65 cells, cAMP HTRF, assay pH 7.2, read-out: hGPR65 IC50 (Activity of selected compounds according to the invention).

Each structure is given as a SMILES string. pIC50: −log10 of the molar value. Like-named read-outs stand apart in the source and are kept apart here.

Sequence of human recombinant GPR65 (Q8IYL9 whole entry): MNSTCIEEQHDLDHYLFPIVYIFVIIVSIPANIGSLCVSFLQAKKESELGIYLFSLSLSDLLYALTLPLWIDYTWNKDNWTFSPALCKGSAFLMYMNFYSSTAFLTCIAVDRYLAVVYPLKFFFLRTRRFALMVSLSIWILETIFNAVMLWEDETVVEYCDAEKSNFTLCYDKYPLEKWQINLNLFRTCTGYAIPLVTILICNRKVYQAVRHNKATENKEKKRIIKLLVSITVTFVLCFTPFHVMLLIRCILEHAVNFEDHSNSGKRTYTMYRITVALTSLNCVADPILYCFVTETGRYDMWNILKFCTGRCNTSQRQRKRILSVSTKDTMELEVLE

Turning to `O=C(Nc1cc(-c2cncc(F)c2)c(C(F)(F)F)cc1F)N1[C@H]2CC[C@@H]1c1ccnc(F)c1C2` [Compound 256, (5R,8S)-1-fluoro-N-(2-fluoro-5-(5-fluoropyridin-3-yl)-4-(trifluoromethyl)phenyl)-6,7,8,9-tetrahydro-5H-5,8-epiminocyclohepta[c]pyridine-10-carboxamide], the pIC50 was more than 6.30. Regarding `O=C(Nc1cc(-c2cncc(F)c2)c(C(F)(F)F)cc1F)N1[C@H]2CC[C@@H]1c1n[nH]c(=O)cc1C2` [Compound 257, (6S,9R)-N-(2-Fluoro-5-(5-fluoropyridin-3-yl)-4-(trifluoromethyl)phenyl)-3-oxo-3,5,6,7,8,9-hexahydro-2H-6,9-epiminocyclohepta[c]pyridazine-10-carboxamide], the pIC50 was more than 6.30. Consider `O=C(Nc1cc(-c2ccccc2)c(C(F)(F)F)cc1F)N1[C@H]2CC[C@@H]1c1n[nH]c(=O)cc1C2` [Compound 258, (6S,9R)-N-(4-Fluoro-6-(trifluoromethyl)-[1,1′-biphenyl]-3-yl)-3-oxo-3,5,6,7,8,9-hexahydro-2H-6,9-epiminocyclohepta[c]pyridazine-10-carboxamide], for which the pIC50 was more than 6.30. Regarding `O=C(Nc1cc(-c2ccc3nonc3c2)c(C(F)(F)F)cc1F)N1[C@H]2CC[C@@H]1c1c[nH]c(=O)cc1C2` [Compound 259, (6S,9R)-N-(5-(Benzo[c][1,2,5]oxadiazol-5-yl)-2-fluoro-4-(trifluoromethyl)phenyl)-3-oxo-3,5,6,7,8,9-hexahydro-2H-6,9-epiminocyclohepta[c]pyridine-10-carboxamide], the pIC50 was more than 6.30. For the compound `O=C(Nc1cc(Cl)c(-c2cc(F)cnc2F)cc1F)N1[C@H]2CC[C@@H]1c1ccnc(F)c1C2` [Compound 260, (5R,8S)-N-(5-Chloro-4-(2,5-difluoropyridin-3-yl)-2-fluorophenyl)-1-fluoro-6,7,8,9-tetrahydro-5H-5,8-epiminocyclohepta[c]pyridine-10-carboxamide], the pIC50 was more than 6.30.

With `O=C(Nc1cc(Cl)c(-c2cnc(F)c(F)c2)cc1F)N1[C@H]2CC[C@@H]1c1c[nH]c(=O)cc1C2` [Compound 261, (6S,9R)-N-(5-Chloro-4-(5,6-difluoropyridin-3-yl)-2-fluorophenyl)-3-oxo-3,5,6,7,8,9-hexahydro-2H-6,9-epiminocyclohepta[c]pyridine-10-carboxamide], the pIC50 was more than 6.30. Still for that read-out and setting: the figure for `O=C(Nc1cc(Cl)c(-c2cnc(F)c(F)c2)cc1F)N1[C@H]2CC[C@@H]1c1ccnc(F)c1C2` [Compound 262, (5R,8S)-N-(5-chloro-4-(5,6-difluoropyridin-3-yl)-2-fluorophenyl)-1-fluoro-6,7,8,9-tetrahydro-5H-5,8-epiminocyclohepta[c]pyridine-10-carboxamide] is more than 6.30; for `CCOc1ccc(-c2cc(F)c(NC(=O)N3[C@H]4CC[C@@H]3c3ccnc(F)c3C4)cc2Cl)cn1` [Compound 263, (5R,8S)-N-(5-Chloro-4-(6-ethoxypyridin-3-yl)-2-fluorophenyl)-1-fluoro-6,7,8,9-tetrahydro-5H-5,8-epiminocyclohepta[c]pyridine-10-carboxamide] it is more than 6.30; for `COc1cc(-c2cc(F)c(NC(=O)N3[C@H]4CC[C@@H]3c3ccnc(F)c3C4)cc2Cl)ccn1` [Compound 264, (5R,8S)-N-(5-Chloro-2-fluoro-4-(2-methoxypyridin-4-yl)phenyl)-1-fluoro-6,7,8,9-tetrahydro-5H-5,8-epiminocyclohepta[c]pyridine-10-carboxamide] it is more than 6.30. `COc1cc(-c2cc(F)c(NC(=O)N3[C@H]4CC[C@@H]3c3c[nH]c(=O)cc3C4)cc2Cl)ccn1` [Compound 265, (6S,9R)-N-(5-Chloro-2-fluoro-4-(2-methoxypyridin-4-yl)phenyl)-3-oxo-3,5,6,7,8,9-hexahydro-2H-6,9-epiminocyclohepta[c]pyridine-10-carboxamide]: the pIC50 is more than 6.30. On the same count and under the same terms, the figure for `O=C(Nc1cc(Cl)c(-c2ccnc(F)c2)cc1F)N1[C@H]2CC[C@@H]1c1n[nH]c(=O)cc1C2` [Compound 266, (6S,9R)-N-(5-Chloro-2-fluoro-4-(2-fluoropyridin-4-yl)phenyl)-3-oxo-3,5,6,7,8,9-hexahydro-2H-6,9-epiminocyclohepta[c]pyridazine-10-carboxamide] is more than 6.30; for `O=C(Nc1cc(Cl)c(-c2ccnc(F)c2)cc1F)N1[C@H]2CC[C@@H]1c1c[nH]c(=O)cc1C2` [Compound 267, (6S,9R)-N-(5-Chloro-2-fluoro-4-(2-fluoropyridin-4-yl)phenyl)-3-oxo-3,5,6,7,8,9-hexahydro-2H-6,9-epiminocyclohepta[c]pyridine-10-carboxamide] it is more than 6.30; for `O=C(Nc1cc(Cl)c(-c2ccnc(F)c2)cc1F)N1[C@H]2CC[C@@H]1c1ccnc(F)c1C2` [Compound 268, (5R,8S)-N-(5-Chloro-2-fluoro-4-(2-fluoropyridin-4-yl)phenyl)-1-fluoro-6,7,8,9-tetrahydro-5H-5,8-epiminocyclohepta[c]pyridine-10-carboxamide] it is more than 6.30.

`O=C(Nc1cc(C(F)(F)F)c(-c2cnc3nonc3c2)cc1F)N1[C@H]2CC[C@@H]1c1n[nH]c(=O)cc1C2` [Compound 269, (6S,9R)-N-(4-([1,2,5]Oxadiazolo[3,4-b]pyridin-6-yl)-2-fluoro-5-(trifluoromethyl)phenyl)-3-oxo-3,5,6,7,8,9-hexahydro-2H-6,9-epiminocyclohepta[c]pyridazine-10-carboxamide]: the pIC50 is more than 6.30. `O=C(Nc1cc(Cl)c(-c2ccc3csnc3c2)cc1F)N1[C@H]2CC[C@@H]1c1n[nH]c(=O)cc1C2` [Compound 270, (6S,9R)-N-(4-(Benzo[c]isothiazol-6-yl)-5-chloro-2-fluorophenyl)-3-oxo-3,5,6,7,8,9-hexahydro-2H-6,9-epiminocyclohepta[c]pyridazine-10-carboxamide]: the pIC50 was more than 6.30. Turning to `O=C(Nc1cc(Cl)c(-c2cnccn2)cc1F)N1[C@H]2CC[C@@H]1c1n[nH]c(=O)cc1C2` [Compound 271, (6S,9R)-N-(5-Chloro-2-fluoro-4-(pyrazin-2-yl)phenyl)-3-oxo-3,5,6,7,8,9-hexahydro-2H-6,9-epiminocyclohepta[c]pyridazine-10-carboxamide], the negative logarithm of the IC50 (pIC50) under setting [1] was 5.30 to 6.30. Regarding `CCOc1ccc(-c2cc(F)c(NC(=O)N3[C@H]4CC[C@@H]3c3c[nH]c(=O)cc3C4)cc2Cl)cn1` [Compound 272, (6S,9R)-N-(5-Chloro-4-(6-ethoxypyridin-3-yl)-2-fluorophenyl)-3-oxo-3,5,6,7,8,9-hexahydro-2H-6,9-epiminocyclohepta[c]pyridine-10-carboxamide], the pIC50 was more than 6.30. Same read-out and setting: the value for `CC(C)Oc1ccc(-c2cc(F)c(NC(=O)N3[C@H]4CC[C@@H]3c3c[nH]c(=O)cc3C4)cc2Cl)cn1` [Compound 273, (6S,9R)-N-(5-Chloro-2-fluoro-4-(6-isopropoxypyridin-3-yl)phenyl)-3-oxo-3,5,6,7,8,9-hexahydro-2H-6,9-epiminocyclohepta[c]pyridine-10-carboxamide] was more than 6.30.

Turning to `CC(C)Oc1ccc(-c2cc(F)c(NC(=O)N3[C@H]4CC[C@@H]3c3ccnc(F)c3C4)cc2Cl)cn1` [Compound 274, (5R,8S)-N-(5-Chloro-2-fluoro-4-(6-isopropoxypyridin-3-yl)phenyl)-1-fluoro-6,7,8,9-tetrahydro-5H-5,8-epiminocyclohepta[c]pyridine-10-carboxamide], the pIC50 is more than 6.30. For the compound `O=C(Nc1cc(Cl)c(-c2ccc(OC3COC3)nc2)cc1F)N1[C@H]2CC[C@@H]1c1n[nH]c(=O)cc1C2` [Compound 275, (6S,9R)-N-(5-Chloro-2-fluoro-4-(6-(oxetan-3-yloxy)pyridin-3-yl)phenyl)-3-oxo-3,5,6,7,8,9-hexahydro-2H-6,9-epiminocyclohepta[c]pyridazine-10-carboxamide], the pIC50 was more than 6.30. Turning to `O=C(Nc1cc(Cl)c(-c2cnc3nsnc3c2)cc1F)N1[C@H]2CC[C@@H]1c1n[nH]c(=O)cc1C2` [Compound 277, (6S,9R)-N-(4-([1,2,5]Thiadiazolo[3,4-b]pyridin-6-yl)-5-chloro-2-fluorophenyl)-3-oxo-3,5,6,7,8,9-hexahydro-2H-6,9-epiminocyclohepta[c]pyridazine-10-carboxamide], the pIC50 was more than 6.30.

Turning to `COCc1ccc(-c2cc(F)c(NC(=O)N3[C@H]4CC[C@@H]3c3n[nH]c(=O)cc3C4)cc2Cl)cn1` [Compound 278, (6S,9R)-N-(5-Chloro-2-fluoro-4-(6-(methoxymethyl)pyridin-3-yl)phenyl)-3-oxo-3,5,6,7,8,9-hexahydro-2H-6,9-epiminocyclohepta[c]pyridazine-10-carboxamide], the pIC50 was more than 6.30. Turning to `O=C(Nc1cc(Cl)c(-c2cnc(F)c(F)c2)cc1F)N1[C@H]2CC[C@@H]1c1n[nH]c(=O)cc1C2` [Compound 279, (6S,9R)-N-(5-Chloro-4-(5,6-difluoropyridin-3-yl)-2-fluorophenyl)-3-oxo-3,5,6,7,8,9-hexahydro-2H-6,9-epiminocyclohepta[c]pyridazine-10-carboxamide], the pIC50 was more than 6.30.

Turning to `COCc1cncc(-c2cc(F)c(NC(=O)N3[C@H]4CC[C@@H]3c3n[nH]c(=O)cc3C4)cc2Cl)c1` [Compound 280, (6S,9R)-N-(5-Chloro-2-fluoro-4-(5-(methoxymethyl)pyridin-3-yl)phenyl)-3-oxo-3,5,6,7,8,9-hexahydro-2H-6,9-], the pIC50 under setting [1] was 5.30 to 6.30. Take `COc1ncc(-c2cc(F)c(NC(=O)N3[C@H]4CC[C@@H]3c3n[nH]c(=O)cc3C4)cc2Cl)cn1` [Compound 281, (6S,9R)-N-(5-Chloro-2-fluoro-4-(2-methoxypyrimidin-5-yl)phenyl)-3-oxo-3,5,6,7,8,9-hexahydro-2H-6,9-epiminocyclohepta[c]pyridazine-10-carboxamide]: the pIC50 was more than 6.30.

With `Cn1ccc2c(-c3cc(F)c(NC(=O)N4[C@H]5CC[C@@H]4c4n[nH]c(=O)cc4C5)cc3Cl)ccnc21` [Compound 282, (6S,9R)-N-(5-Chloro-2-fluoro-4-(1-methyl-1H-pyrrolo[2,3-b]pyridin-4-yl)phenyl)-3-oxo-3,5,6,7,8,9-hexahydro-2H-6,9-epiminocyclohepta[c]pyridazine-10-carboxamide], the pIC50 is more than 6.30.
